Results as given in article PMC12406203 (Journal of Medicinal Chemistry, 2025).

How the values were obtained:
Assay in all cases: KINOMEscan
Format in all cases: binding
ALK = biological target: T1, ALK (Homo sapiens, UniProt Q9UM73)
T1 construct: purchased Eurofins DiscoverX, LLC; host or cells: E. coli BL21-derived (T7 phage) or HEK-293
Experimental: (§1) The kinase inhibition profile of compounds 94 and 95 was assessed against 103 protein kinases by Eurofins DiscoverX, LLC., using the KINOMEscan assay. Kinase-tagged T7 phage strains were grown in parallel in 24-well blocks in an E. coli host derived from the BL21 strain. E. coli were grown to log-phase and infected with T7 phage from a frozen stock (multiplicity of infection = 0.4) and incubated with shaking at 32 °C until lysis (90–150 min). The lysates were centrifuged (6000g) and filtered (0.2 μm) to remove cell debris. The remaining kinases were produced in HEK-293 cells and subsequently tagged with DNA for qPCR detection. […] The liganded beads were blocked with excess biotin and washed with blocking buffer (SeaBlock (Pierce), 1% BSA, 0.05% Tween 20, 1 mM DTT) to remove unbound ligand and to reduce nonspecific phage binding. […] Test compounds were prepared as 100× stocks in 100% DMSO and directly diluted into the assay. All reactions were performed in polypropylene 384-well plates in a final volume of 0.02 mL. […] The kinase concentration in the eluates was measured by qPCR.
(§2) The compound(s) were screened at the concentration(s) requested, and results for primary screen binding interactions are reported as RA (%), where lower numbers indicate stronger hits in the matrix. RA=(testcompoundsignal−PCsignal/NCsignal−PCsignal)×100

TRKA = biological target: T2, TRKA (Homo sapiens, UniProt P04629)
T2 construct: purchased Eurofins DiscoverX, LLC; host or cells: E. coli BL21-derived host (T7 phage) or HEK-293
Experimental: as §1, §2

ERBB2 = biological target: T3, ERBB2 (Homo sapiens, UniProt P04626)
T3 construct: purchased Eurofins DiscoverX, LLC; host or cells: E. coli (T7 phage) or HEK-293
T3 sequence (P04626 23-1255): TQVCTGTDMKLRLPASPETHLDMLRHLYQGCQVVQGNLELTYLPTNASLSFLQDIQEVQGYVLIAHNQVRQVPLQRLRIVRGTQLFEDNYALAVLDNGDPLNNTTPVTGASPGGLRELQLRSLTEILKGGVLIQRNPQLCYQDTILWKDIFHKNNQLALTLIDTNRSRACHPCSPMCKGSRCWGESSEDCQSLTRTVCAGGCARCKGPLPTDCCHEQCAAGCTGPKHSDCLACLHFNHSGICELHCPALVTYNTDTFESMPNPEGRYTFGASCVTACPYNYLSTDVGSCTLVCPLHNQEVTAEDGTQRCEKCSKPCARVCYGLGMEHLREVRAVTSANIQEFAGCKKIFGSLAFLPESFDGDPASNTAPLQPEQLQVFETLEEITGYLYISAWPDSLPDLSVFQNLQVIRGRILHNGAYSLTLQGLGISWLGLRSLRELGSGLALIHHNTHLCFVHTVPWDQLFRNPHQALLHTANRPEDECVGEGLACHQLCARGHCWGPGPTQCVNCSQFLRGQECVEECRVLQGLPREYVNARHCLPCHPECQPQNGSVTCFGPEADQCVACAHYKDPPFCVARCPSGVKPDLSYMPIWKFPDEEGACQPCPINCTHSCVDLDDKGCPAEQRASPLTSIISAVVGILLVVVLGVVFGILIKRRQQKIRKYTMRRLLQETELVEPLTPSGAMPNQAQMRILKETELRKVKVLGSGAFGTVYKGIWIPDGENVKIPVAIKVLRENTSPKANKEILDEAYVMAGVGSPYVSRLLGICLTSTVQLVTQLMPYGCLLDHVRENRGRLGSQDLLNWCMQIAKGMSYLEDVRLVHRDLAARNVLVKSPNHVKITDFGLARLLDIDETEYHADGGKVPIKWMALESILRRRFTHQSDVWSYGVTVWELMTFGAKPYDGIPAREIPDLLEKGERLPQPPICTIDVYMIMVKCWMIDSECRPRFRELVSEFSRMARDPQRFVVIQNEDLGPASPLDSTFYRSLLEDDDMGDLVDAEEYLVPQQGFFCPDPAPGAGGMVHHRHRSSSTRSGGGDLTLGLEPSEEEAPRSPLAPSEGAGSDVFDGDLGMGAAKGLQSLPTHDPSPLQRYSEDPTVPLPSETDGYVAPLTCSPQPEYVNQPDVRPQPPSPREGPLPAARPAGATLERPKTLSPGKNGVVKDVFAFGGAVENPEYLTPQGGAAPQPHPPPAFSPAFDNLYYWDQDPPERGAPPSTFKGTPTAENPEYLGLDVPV
Experimental: as §1, §2

PLK4 = biological target: T4, PLK4 (Homo sapiens, UniProt O00444)
T4 construct: purchased Eurofins DiscoverX, LLC; host or cells: E. coli BL21-derived host (T7 phage) or HEK-293
T4 sequence (O00444 1-970): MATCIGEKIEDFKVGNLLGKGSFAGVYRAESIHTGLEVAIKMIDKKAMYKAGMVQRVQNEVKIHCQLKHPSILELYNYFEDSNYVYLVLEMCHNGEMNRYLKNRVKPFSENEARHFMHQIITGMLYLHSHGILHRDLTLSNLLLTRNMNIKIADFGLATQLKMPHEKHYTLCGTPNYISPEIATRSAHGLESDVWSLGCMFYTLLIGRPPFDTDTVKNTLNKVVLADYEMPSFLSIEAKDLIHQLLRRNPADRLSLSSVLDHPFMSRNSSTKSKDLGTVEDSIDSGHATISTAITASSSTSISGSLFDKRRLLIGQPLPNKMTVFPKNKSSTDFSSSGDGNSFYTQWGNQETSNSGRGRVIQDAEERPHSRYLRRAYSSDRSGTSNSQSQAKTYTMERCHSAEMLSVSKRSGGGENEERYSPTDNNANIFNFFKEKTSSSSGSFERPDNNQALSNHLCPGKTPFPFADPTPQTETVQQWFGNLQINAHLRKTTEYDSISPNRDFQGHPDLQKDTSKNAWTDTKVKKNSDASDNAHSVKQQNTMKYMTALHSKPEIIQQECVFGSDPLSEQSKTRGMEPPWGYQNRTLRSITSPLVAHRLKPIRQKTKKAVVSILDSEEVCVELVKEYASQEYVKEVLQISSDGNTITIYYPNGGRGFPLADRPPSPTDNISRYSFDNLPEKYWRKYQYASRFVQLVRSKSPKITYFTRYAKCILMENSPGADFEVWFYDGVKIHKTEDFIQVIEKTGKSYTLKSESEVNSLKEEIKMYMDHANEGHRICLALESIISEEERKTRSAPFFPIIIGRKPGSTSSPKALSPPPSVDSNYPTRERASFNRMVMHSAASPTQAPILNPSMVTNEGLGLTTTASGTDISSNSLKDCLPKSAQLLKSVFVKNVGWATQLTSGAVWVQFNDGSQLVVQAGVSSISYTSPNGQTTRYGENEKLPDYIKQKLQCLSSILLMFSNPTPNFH
Experimental: as §1, §2

ERK1 = biological target: T5, ERK1 (Homo sapiens, UniProt P27361)
T5 construct: purchased Eurofins DiscoverX, LLC; host or cells: E. coli (T7 phage) or HEK-293
Experimental: as §1, §2

CSNK1G2 = biological target: T6, CSNK1G2 (Homo sapiens, UniProt P78368)
T6 construct: purchased Eurofins DiscoverX, LLC; host or cells: E. coli (T7 phage) or HEK-293
T6 sequence (P78368 whole entry): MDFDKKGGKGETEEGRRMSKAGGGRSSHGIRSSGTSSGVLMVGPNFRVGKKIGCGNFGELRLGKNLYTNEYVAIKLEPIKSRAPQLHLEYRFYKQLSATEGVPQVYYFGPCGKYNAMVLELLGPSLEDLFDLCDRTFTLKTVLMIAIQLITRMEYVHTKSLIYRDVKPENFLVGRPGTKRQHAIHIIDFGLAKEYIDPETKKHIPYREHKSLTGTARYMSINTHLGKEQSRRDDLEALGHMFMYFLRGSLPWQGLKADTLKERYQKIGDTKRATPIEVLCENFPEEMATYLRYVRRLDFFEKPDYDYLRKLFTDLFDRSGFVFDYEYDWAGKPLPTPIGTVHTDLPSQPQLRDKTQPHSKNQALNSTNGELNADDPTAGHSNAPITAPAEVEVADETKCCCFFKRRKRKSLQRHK
Experimental: as §1, §2

[1] = biological target: T7, JAK3(JH1domain-catalytic) (Homo sapiens, UniProt P52333)
T7 construct: JAK3(JH1domain-; purchased Eurofins DiscoverX, LLC; host or cells: E. coli (T7 phage) or HEK-293
T7 sequence (P52333 822-1111 limits assumed): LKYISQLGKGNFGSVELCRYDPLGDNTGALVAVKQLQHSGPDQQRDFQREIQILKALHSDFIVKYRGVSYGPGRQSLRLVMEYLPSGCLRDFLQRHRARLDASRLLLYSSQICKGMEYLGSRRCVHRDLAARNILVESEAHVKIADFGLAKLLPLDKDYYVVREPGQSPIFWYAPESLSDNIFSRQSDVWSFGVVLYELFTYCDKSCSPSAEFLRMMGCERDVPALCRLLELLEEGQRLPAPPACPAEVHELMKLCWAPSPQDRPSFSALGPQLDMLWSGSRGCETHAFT
Experimental: as §1, §2

ABL1-phosphorylated = biological target: T8, ABL1-phosphorylated (Homo sapiens, UniProt P00519)
T8 construct: purchased Eurofins DiscoverX, LLC; host or cells: E. coli BL21-derived (T7 phage) or HEK-293
T8 sequence (P00519 whole entry): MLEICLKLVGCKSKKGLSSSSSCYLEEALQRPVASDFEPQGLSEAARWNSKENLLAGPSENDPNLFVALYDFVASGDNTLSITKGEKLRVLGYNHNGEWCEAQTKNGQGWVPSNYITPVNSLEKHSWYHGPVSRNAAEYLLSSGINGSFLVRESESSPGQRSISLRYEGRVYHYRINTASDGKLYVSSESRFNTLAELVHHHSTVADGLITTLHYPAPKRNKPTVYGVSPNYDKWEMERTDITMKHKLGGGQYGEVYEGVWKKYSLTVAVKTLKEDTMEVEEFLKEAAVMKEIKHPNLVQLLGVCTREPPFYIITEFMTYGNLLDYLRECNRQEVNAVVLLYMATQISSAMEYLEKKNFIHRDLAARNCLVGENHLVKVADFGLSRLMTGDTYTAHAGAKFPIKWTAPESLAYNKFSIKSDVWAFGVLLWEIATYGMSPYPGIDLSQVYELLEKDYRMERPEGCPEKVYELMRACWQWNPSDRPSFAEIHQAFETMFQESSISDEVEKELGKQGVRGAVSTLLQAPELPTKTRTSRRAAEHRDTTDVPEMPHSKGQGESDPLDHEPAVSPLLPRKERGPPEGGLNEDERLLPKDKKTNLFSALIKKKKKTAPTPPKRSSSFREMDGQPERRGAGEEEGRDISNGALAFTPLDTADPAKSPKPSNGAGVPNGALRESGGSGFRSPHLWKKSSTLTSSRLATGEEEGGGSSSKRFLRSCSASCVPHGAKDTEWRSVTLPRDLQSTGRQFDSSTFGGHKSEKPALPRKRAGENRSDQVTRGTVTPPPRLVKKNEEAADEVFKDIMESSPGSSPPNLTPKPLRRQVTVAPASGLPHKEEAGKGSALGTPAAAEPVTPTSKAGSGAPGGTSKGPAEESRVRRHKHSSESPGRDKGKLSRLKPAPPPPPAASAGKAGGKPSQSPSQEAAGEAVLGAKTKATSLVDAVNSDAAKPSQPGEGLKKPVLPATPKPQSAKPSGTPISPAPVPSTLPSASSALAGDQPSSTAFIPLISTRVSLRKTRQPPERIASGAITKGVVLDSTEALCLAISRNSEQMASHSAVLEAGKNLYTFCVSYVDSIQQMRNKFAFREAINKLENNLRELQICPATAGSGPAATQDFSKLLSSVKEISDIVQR
Experimental: as §1, §2

PIM2 = biological target: T9, PIM2 (Homo sapiens, UniProt Q9P1W9)
T9 construct: purchased Eurofins DiscoverX, LLC; host or cells: E. coli BL21-derived host (T7 phage) or HEK-293
T9 sequence (Q9P1W9 whole entry): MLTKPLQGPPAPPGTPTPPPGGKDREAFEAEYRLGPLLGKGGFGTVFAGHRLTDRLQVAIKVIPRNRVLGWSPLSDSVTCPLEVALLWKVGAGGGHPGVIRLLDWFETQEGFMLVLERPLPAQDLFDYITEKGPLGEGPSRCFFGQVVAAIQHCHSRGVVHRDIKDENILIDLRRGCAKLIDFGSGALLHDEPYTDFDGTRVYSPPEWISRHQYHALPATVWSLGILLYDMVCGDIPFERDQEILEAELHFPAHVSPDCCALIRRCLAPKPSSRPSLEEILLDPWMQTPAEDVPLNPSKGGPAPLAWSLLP
Experimental: as §1, §2

ACVR1B = biological target: T10, ACVR1B (Homo sapiens, UniProt P36896)
T10 construct: purchased Eurofins DiscoverX, LLC; host or cells: E. coli BL21-derived (T7 phage) or HEK-293
T10 sequence (P36896 24-505): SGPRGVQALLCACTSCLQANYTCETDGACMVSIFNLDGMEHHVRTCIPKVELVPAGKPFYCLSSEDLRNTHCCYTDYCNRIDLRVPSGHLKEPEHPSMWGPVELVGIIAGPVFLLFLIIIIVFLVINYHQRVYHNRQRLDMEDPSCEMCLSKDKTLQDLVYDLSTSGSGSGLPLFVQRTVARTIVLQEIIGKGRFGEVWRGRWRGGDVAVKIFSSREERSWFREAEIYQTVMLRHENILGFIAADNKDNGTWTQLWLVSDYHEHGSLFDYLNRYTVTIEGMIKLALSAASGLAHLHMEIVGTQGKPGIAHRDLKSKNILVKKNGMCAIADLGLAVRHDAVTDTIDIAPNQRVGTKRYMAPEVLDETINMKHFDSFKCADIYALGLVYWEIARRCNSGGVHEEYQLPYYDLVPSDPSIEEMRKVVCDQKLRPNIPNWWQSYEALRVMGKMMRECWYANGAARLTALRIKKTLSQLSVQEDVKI
Experimental: as §1, §2

JNK1 = biological target: T11, JNK1 (Homo sapiens, UniProt P45983)
T11 construct: purchased Eurofins DiscoverX, LLC; host or cells: E. coli (BL21-derived, T7 phage) or HEK-293
Experimental: as §1, §2

T1 sequence (Q9UM73 19-1620): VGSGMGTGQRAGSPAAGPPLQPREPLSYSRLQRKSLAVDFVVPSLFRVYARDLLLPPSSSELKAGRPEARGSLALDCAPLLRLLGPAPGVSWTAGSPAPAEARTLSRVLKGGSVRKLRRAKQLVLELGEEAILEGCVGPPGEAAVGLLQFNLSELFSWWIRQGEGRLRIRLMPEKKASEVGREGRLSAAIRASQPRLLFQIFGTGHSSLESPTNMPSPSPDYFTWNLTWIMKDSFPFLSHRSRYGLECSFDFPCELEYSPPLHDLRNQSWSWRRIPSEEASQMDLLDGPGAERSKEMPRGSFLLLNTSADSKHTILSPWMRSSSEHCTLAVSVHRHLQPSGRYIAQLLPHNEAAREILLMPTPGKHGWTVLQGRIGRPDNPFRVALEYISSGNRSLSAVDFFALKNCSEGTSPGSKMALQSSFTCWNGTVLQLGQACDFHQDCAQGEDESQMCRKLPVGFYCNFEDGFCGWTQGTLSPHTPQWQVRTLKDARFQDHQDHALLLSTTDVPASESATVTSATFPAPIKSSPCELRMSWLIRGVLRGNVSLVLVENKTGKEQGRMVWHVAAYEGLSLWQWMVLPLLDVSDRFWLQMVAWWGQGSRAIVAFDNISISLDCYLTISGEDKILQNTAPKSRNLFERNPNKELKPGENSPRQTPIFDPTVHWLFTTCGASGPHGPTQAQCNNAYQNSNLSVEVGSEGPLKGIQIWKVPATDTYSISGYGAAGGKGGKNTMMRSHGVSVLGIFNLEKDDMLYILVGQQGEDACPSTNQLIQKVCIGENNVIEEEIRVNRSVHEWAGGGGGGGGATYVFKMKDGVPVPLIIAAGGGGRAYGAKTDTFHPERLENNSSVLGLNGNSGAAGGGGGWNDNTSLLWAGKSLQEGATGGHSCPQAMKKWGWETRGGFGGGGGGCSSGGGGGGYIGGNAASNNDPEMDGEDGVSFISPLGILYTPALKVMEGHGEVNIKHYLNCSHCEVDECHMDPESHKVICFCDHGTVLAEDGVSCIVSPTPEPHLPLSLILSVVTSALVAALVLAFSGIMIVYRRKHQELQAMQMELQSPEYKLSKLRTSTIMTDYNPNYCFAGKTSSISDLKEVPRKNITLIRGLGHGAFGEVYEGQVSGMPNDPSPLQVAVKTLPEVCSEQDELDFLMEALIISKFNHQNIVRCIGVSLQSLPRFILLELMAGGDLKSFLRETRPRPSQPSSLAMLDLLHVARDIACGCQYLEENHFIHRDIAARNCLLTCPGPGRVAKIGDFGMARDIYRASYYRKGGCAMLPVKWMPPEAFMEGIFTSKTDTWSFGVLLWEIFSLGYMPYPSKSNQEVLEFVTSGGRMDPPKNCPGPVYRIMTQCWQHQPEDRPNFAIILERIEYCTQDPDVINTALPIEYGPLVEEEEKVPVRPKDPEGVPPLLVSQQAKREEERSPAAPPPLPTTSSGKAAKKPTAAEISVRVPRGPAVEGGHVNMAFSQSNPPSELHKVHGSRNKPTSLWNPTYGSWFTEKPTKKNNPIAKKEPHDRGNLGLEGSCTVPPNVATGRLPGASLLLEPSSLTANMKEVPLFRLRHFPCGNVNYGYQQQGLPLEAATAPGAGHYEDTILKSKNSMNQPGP

Row | Structure (SMILES) | RA @ 1000nM (ALK) | RA @ 10000nM (ALK) | RA @ 1000nM (TRKA) | RA @ 10000nM (TRKA) | RA @ 1000nM (ERBB2) | RA @ 10000nM (ERBB2) | RA @ 1000nM (PLK4) | RA @ 10000nM (PLK4) | RA @ 1000nM (ERK1) | RA @ 10000nM (ERK1) | RA @ 1000nM (CSNK1G2) | RA @ 10000nM (CSNK1G2) | RA @ 1000nM [1] | RA @ 10000nM [1] | RA @ 1000nM (ABL1-phosphorylated) | RA @ 10000nM (ABL1-phosphorylated) | RA @ 1000nM (PIM2) | RA @ 10000nM (PIM2) | RA @ 1000nM (ACVR1B) | RA @ 10000nM (ACVR1B) | other results
1 | CC(C)Cn1ncc2cc(Cc3ccc(F)cc3F)c(C(=O)NCCN(C)C)cc21 [Compound 94, 5-(2,4-Difluorobenzyl)-N-(2-(dimethylamino)ethyl)-1-isobutyl-1H-indazole-6-carboxamide] | 93% | 83% | 98% | 94% | 74% | 81% | 100% | 100% | 87% | 87% | 96% | 93% | 100% | 100% | 79% | 53% | 100% | 100% | 100% | 100% | RA @ 1000nM (JNK1): 77%; RA @ 10000nM (JNK1): 41%
2 | CN(C)CCNC(=O)c1cc2c(cnn2CC2CCCCC2)cc1Cc1ccc(F)cc1F [Compound 95, 1-(Cyclohexylmethyl)-5-(2,4-difluorobenzyl)-N-(2-(dimethylamino)ethyl)-1H-indazole-6-carboxamide] | 62% | 92% | 100% | 92% | 84% | 78% | 100% | 100% | 96% | 90% | 100% | 98% | 100% | 100% | 81% | 85% | 100% | 100% | 100% | 100% | RA @ 1000nM (JNK1): 100%; RA @ 10000nM (JNK1): 27%
